Where two headings read alike, the source gives them in different places.
Legend:
kinases (468) [1] = target: kinases (468) (Homo sapiens, UniProt O95747); settings: OSR1 (OXSR1); 1000 nM
kinases (468) [2] = target: kinases (468) (Homo sapiens, UniProt O95819); settings: MAP4K4; 1000 nM
kinases (468) [3] = target: kinases (468) (Homo sapiens, UniProt P00519); settings: 1000 nM
kinases (468) [4] = target: kinases (468) (Homo sapiens, UniProt P00519, Y253F); settings: ABL1(Y253F)-phosphorylated; 1000 nM
kinases (468) [5] = target: kinases (468) (Homo sapiens, UniProt P07948); settings: LYN; 1000 nM
kinases (468) [6] = target: kinases (468) (Homo sapiens, UniProt P09619); settings: PDGFRB; 1000 nM
kinases (468) [7] = target: kinases (468) (Homo sapiens, UniProt P0C264); settings: kinase SgK110 (Entrez SgK110); compound concentration 1000 nM
kinases (468) [8] = target: kinases (468) (Homo sapiens, UniProt P10721, D816H); settings: KIT(D816H); 1000 nM
kinases (468) [9] = target: kinases (468) (Homo sapiens, UniProt P25098); settings: GRK2 (ADRBK1); 1000 nM
kinases (468) [10] = target: kinases (468) (Homo sapiens, UniProt P29323); settings: EPHB2; 1000 nM
kinases (468) [11] = target: kinases (468) (Homo sapiens, UniProt P36888, N841I); settings: FLT3(N841I); 1000 nM
kinases (468) [12] = target: kinases (468) (Homo sapiens, UniProt P51955); settings: NEK2; 1000 nM
kinases (468) [13] = target: kinases (468) (Homo sapiens, UniProt P51957); settings: NEK4; 1000 nM
kinases (468) [14] = target: kinases (468) (Homo sapiens, UniProt P53667); settings: LIMK1; 1000 nM
kinases (468) [15] = target: kinases (468) (Homo sapiens, UniProt P78356); settings: PIP5K2B (PIP4K2B); 1000 nM
kinases (468) [16] = target: kinases (468) (Homo sapiens, UniProt Q00535); settings: CDK5; 1000 nM
kinases (468) [17] = target: kinases (468) (Homo sapiens, UniProt Q02779); settings: MLK2 (MAP3K10); 1000 nM
kinases (468) [18] = target: kinases (468) (Homo sapiens, UniProt Q05397); settings: FAK (PTK2); 1000 nM
kinases (468) [19] = target: kinases (468) (Homo sapiens, UniProt Q13627); settings: DYRK1A; 1000 nM
kinases (468) [20] = target: kinases (468) (Homo sapiens, UniProt Q13976); settings: PRKG1; 1000 nM
kinases (468) [21] = target: kinases (468) (Homo sapiens, UniProt Q15349); settings: compound concentration 1000 nM
kinases (468) [22] = target: kinases (468) (Homo sapiens, UniProt Q16512); settings: PKN1; 1000 nM
kinases (468) [23] = target: kinases (468) (Homo sapiens, UniProt Q5S007); settings: LRRK2; 1000 nM
kinases (468) [24] = target: kinases (468) (Homo sapiens, UniProt Q8IU85); settings: CAMK1D; 1000 nM
kinases (468) [25] = target: kinases (468) (Homo sapiens, UniProt Q8IYT8); settings: kinase ULK2 (Entrez ULK2); compound concentration 1000 nM
kinases (468) [26] = target: kinases (468) (Homo sapiens, UniProt Q8TDC3); settings: BRSK1; 1000 nM
kinases (468) [27] = target: kinases (468) (Homo sapiens, UniProt Q8WTQ7); settings: GRK7; 1000 nM
kinases (468) [28] = target: kinases (468) (Homo sapiens, UniProt Q99759); settings: MAP3K3; 1000 nM
kinases (468) [29] = target: kinases (468) (Homo sapiens, UniProt Q9BVS4); settings: kinase RIOK2 (Entrez RIOK2); compound concentration 1000 nM
kinases (468) [30] = target: kinases (468) (Homo sapiens, UniProt Q9HCP0); settings: CSNK1G1; 1000 nM
kinases (468) [31] = target: kinases (468) (Homo sapiens, UniProt Q9P1W9); settings: PIM2; 1000 nM
kinases (468) [32] = target: kinases (468) (Homo sapiens, UniProt Q9Y2U5); settings: MAP3K2; 1000 nM
kinases (468) [33] = target: kinases (468) (Homo sapiens, UniProt Q9Y6M4); settings: CSNK1G3; 1000 nM
kinases (468) [34] = target: kinases (468) (Homo sapiens, UniProt Q9Y6R4); settings: MAP3K4; 1000 nM

Sequence of kinases (468) (Homo sapiens, UniProt Q15349) (Q15349 whole entry): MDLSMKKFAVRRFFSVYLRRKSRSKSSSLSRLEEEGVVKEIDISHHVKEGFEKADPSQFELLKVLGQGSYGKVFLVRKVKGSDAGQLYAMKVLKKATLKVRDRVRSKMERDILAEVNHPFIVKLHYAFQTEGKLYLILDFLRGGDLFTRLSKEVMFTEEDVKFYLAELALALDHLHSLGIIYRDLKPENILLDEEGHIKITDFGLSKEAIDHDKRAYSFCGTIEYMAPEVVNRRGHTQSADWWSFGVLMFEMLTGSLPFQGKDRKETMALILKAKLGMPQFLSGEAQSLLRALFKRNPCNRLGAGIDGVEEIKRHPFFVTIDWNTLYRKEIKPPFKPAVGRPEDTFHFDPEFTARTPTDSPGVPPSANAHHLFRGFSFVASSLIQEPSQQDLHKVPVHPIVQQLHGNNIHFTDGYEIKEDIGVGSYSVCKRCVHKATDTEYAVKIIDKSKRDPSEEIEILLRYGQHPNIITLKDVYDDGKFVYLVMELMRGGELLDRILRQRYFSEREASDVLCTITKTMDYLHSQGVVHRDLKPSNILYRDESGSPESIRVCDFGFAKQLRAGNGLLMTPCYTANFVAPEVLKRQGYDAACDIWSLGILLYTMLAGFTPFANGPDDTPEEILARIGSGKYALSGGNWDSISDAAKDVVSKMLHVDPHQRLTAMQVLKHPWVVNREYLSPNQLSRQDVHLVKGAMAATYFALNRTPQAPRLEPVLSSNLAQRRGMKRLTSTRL
Sequence of kinases (468) (Homo sapiens, UniProt Q8IYT8) (Q8IYT8 whole entry): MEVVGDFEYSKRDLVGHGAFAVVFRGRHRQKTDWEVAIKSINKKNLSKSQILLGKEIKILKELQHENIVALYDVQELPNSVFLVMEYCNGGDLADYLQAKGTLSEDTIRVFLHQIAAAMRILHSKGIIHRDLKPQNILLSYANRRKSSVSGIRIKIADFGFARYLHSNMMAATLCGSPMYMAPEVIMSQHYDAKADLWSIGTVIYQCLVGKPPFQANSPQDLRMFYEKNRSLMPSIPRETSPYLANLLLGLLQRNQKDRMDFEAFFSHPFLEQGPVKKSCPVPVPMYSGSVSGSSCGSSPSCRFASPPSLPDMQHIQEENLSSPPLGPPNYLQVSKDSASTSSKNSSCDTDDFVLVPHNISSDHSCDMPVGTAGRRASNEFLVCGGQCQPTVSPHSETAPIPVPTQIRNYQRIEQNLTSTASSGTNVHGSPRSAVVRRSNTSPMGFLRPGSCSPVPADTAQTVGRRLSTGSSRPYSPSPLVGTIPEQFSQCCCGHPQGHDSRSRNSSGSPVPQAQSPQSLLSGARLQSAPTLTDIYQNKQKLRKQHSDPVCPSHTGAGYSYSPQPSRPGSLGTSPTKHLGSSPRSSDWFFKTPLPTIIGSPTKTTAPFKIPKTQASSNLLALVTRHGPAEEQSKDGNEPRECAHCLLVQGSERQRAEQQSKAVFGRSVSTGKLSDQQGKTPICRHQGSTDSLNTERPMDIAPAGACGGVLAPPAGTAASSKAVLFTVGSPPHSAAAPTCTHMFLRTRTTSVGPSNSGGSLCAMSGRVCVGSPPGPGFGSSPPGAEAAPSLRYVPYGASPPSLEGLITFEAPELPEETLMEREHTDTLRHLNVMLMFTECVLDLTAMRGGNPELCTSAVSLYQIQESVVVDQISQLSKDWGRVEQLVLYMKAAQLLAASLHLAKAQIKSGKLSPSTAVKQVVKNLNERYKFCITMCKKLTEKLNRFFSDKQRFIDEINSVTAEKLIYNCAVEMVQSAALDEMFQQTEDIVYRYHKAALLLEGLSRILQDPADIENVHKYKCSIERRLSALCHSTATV
Sequence of kinases (468) (Homo sapiens, UniProt Q13976) (Q13976 whole entry): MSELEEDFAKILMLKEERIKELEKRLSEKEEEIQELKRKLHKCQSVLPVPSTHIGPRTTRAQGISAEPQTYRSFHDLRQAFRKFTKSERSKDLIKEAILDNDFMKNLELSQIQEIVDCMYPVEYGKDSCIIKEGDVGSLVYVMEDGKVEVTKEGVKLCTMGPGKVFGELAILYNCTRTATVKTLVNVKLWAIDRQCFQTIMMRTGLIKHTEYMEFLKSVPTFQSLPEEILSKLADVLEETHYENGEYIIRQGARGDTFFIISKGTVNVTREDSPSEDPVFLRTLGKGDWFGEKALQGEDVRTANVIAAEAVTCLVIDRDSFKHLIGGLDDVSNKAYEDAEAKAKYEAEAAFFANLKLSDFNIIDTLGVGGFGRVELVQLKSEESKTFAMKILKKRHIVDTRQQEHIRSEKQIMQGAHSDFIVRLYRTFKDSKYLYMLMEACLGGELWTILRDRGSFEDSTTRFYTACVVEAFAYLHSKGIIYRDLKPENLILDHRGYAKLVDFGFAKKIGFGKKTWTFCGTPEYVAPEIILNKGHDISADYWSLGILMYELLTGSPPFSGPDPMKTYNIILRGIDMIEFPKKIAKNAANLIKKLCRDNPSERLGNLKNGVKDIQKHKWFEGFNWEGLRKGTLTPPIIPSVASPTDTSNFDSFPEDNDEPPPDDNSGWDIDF
Sequence of kinases (468) (Homo sapiens, UniProt O95747) (O95747 whole entry): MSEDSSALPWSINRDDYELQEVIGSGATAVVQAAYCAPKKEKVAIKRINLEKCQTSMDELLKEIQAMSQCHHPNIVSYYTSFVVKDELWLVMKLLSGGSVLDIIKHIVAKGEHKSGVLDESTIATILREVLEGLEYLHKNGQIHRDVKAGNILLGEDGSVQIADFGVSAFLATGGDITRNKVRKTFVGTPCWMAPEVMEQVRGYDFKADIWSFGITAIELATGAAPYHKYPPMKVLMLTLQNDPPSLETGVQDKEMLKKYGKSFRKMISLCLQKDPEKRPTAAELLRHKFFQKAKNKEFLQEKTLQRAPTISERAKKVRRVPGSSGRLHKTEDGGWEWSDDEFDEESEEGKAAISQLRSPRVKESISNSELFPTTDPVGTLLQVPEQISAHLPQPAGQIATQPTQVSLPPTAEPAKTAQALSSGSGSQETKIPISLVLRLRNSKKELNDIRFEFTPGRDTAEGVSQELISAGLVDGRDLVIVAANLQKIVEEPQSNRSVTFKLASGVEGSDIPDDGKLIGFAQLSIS
Sequence of kinases (468) (Homo sapiens, UniProt O95819) (O95819 whole entry): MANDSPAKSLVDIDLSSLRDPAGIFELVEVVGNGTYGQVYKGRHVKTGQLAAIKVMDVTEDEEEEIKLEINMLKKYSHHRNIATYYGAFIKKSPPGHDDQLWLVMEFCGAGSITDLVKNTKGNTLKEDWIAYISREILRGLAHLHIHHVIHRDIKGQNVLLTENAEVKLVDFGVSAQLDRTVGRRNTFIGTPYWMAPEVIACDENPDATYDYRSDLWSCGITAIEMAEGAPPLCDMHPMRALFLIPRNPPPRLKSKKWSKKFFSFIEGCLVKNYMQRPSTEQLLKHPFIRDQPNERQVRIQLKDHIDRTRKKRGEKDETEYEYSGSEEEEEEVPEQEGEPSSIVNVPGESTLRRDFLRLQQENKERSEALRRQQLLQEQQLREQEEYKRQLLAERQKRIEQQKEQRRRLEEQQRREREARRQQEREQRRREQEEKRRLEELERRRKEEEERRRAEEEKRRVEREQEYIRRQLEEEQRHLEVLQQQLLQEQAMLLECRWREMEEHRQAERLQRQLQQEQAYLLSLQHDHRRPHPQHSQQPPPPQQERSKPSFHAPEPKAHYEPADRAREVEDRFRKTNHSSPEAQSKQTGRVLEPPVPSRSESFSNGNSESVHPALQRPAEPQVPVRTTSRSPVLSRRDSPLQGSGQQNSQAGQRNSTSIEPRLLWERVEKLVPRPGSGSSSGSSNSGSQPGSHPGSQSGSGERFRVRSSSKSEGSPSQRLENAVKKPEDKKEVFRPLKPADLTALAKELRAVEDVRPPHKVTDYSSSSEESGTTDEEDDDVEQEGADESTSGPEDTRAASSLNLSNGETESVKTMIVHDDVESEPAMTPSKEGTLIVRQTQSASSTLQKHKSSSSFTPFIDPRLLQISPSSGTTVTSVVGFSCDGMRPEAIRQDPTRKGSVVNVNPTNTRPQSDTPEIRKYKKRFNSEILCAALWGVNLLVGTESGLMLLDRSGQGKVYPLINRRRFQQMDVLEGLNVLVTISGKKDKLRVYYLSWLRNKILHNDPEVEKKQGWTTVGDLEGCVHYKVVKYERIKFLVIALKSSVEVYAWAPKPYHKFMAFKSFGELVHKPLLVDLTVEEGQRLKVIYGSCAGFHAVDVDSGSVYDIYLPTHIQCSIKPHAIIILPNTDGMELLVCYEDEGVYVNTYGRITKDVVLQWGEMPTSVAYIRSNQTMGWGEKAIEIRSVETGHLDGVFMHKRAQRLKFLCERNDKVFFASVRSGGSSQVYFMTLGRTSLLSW
Sequence of kinases (468) (Homo sapiens, UniProt P53667) (P53667 whole entry): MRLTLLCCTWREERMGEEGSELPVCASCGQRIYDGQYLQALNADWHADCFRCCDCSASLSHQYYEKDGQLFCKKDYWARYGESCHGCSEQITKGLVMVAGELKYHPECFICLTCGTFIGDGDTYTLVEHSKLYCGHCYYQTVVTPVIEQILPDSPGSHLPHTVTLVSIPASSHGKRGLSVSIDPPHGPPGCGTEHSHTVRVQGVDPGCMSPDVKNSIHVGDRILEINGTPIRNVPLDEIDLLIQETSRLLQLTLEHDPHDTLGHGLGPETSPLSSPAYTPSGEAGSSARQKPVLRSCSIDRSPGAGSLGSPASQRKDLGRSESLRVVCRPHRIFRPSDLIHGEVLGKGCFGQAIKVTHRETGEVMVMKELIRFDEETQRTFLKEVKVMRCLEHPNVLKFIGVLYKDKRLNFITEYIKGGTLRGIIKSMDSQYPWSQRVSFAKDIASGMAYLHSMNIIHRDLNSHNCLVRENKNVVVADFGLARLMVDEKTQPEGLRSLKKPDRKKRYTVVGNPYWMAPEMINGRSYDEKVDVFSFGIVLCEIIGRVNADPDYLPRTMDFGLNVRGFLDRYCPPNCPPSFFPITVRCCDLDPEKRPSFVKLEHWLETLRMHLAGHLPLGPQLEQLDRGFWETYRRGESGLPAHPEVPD

C[C@H]1C[C@@H](O)CN(c2ncc(Cl)c(Nc3ccc4c(c3)c3c(c(=O)n4C)OCC(F)(F)[C@H](C4CC4)N3)n2)C1 [CCT373566_9A]
Percent Control (kinases (468) [1]): 100%
Percent Control (kinases (468) [2]): 87%
Percent Control (kinases (468) [3]; ABL1-nonphosphorylated): 92%
Percent Control (kinases (468) [3]; ABL1-phosphorylated): 99%
Percent Control (kinases (468) [4]): 91%
Percent Control (kinases (468) [5]): 88%
Percent Control (kinases (468) [6]): 98%
Percent Control (kinases (468) [7]): 95%
Percent Control (kinases (468) [8]): 87%
Percent Control (kinases (468) [9]): 41%
Percent Control (kinases (468) [10]): 96%
Percent Control (kinases (468) [11]): 94%
Percent Control (kinases (468) [12]): 92%
Percent Control (kinases (468) [13]): 91%
Percent Control (kinases (468) [14]): 57%
Percent Control (kinases (468) [15]): 100%
Percent Control (kinases (468) [16]): 97%
Percent Control (kinases (468) [17]): 100%
Percent Control (kinases (468) [18]): 96%
Percent Control (kinases (468) [19]): 95%
Percent Control (kinases (468) [20]): 96%
Percent Control (kinases (468) [21]; kinase RSK3(Kin.Dom.1-N-terminal) (Entrez RPS6KA2)): 100%
Percent Control (kinases (468) [21]; kinase RSK3(Kin.Dom.2-C-terminal) (Entrez RPS6KA2)): 83%
Percent Control (kinases (468) [22]): 100%
Percent Control (kinases (468) [23]): 98%
Percent Control (kinases (468) [24]): 92%
Percent Control (kinases (468) [25]): 100%
Percent Control (kinases (468) [26]): 96%
Percent Control (kinases (468) [27]): 96%
Percent Control (kinases (468) [28]): 100%
Percent Control (kinases (468) [29]): 100%
Percent Control (kinases (468) [30]): 97%
Percent Control (kinases (468) [31]): 98%
Percent Control (kinases (468) [32]): 95%
Percent Control (kinases (468) [33]): 100%
Percent Control (kinases (468) [34]): 100%

Source: PMC9234961 (Journal of Medicinal Chemistry, 2022)
